The source of these data is patent publication US7456165B2, “HCV NS5B inhibitors” (Bristol-Myers Squibb Company, priority 2006, dated 2008).

A word on the EC50: it is the concentration giving half of the maximal effect. Read a low EC50 as greater potency. Usually IC50 stands for the concentration at which inhibition is half-maximal. The low end stands for higher potency, the high end for lower potency.

In one assay the test system is HCV replicon cells. Description: HCV replicon FRET assay. The settings on record: Hepatitis C virus. Format: cell-based. Summed up:
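Huh-7-derived HCV replicon cells (with or without Renilla luciferase reporter) incubated with titrated compound at 37° C. Lysed cells then read by NS3 cleavage of EDANS/DABCYL FRET peptide (20 μM, 340/490 nm, kinetic) or by Dual-Glo luciferase. EC50 is concentration giving 50% signal reduction after protease-inhibitor background subtraction; Alamar blue gives cytotoxicity.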

The target in the next assay is T1, HCV NS5B (Hepatitis C virus genotype 1b, UniProt Q9WMX2).
T1 construct: The protein was expressed with an 18 amino acid C-terminal truncation to enhance the solubility; made in house; host or cells: E. coli BL21(DE3)
Description: HCV NS5B RdRp enzyme assay (preincubation protocol). The assay is classed as biochemical. The settings on record: HCV NS5B RdRp genotype 1b. Summed up: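 Preincubation format uses C-terminally truncated (Δ18) NS5B 1b from E. coli at 14 nM, added to compound before polyA template (0.2 nM), 3H-UTP (0.29 μM) and oligo-dT12 primer precaptured on SPA beads (20 nM). Buffer was 20 mM Hepes pH 7.5, 2% DMSO, run 4 h at 30° C. IC50 came from seven concentrations.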

T1 sequence (Q9WMX2 2420-2992): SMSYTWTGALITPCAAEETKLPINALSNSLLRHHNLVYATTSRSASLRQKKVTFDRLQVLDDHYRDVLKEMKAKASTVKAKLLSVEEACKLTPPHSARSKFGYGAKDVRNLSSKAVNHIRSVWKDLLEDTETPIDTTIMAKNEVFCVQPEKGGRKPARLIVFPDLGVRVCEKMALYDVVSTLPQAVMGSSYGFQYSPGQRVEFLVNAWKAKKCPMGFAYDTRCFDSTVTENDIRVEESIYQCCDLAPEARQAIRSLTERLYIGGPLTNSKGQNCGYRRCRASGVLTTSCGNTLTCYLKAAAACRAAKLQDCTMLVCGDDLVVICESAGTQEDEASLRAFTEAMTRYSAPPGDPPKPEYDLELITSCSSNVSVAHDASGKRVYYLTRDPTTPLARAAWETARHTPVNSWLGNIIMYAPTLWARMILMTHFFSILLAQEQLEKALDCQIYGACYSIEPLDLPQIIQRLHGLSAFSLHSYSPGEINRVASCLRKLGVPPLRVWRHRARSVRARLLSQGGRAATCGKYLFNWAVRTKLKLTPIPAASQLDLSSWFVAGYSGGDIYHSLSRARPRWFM

`Cn1nc(C2=Cc3ccccc3-c3c(C4CCCCC4)c4ccc(C(=O)O)cc4n3C2)nc1CC1CCOCC1` [Example 42, 13-cyclohexyl-6-[1-methyl-5-[(tetrahydro-2H-pyran-4-yl)methyl]-1H-1,2,4-triazol-3-yl]-7H-indolo[2,1-a][2]benzazepine-10-carboxylic acid]: the EC50 in the assay on HCV replicon cells was > 500 nM. Also, the IC50 against HCV NS5B is > 500 nM.
For the compound `CN(C)S(=O)(=O)NC(=O)c1ccc2c(C3CCCCC3)c3n(c2c1)CC(c1nc(CC2CCOCC2)n(C)n1)=Cc1ccccc1-3` [Example 43, 13-cyclohexyl-N-[(dimethylamino)sulfonyl]-6-[1-methyl-5-[(tetrahydro-2H-pyran-4-yl)methyl]-1H-1,2,4-triazol-3-yl]-7H-indolo[2,1-a][2]benzazepine-10-carboxamide], the EC50 in the assay with HCV replicon cells is > 500 nM. At HCV NS5B, the IC50 lay within 1 to 500 nM.
With `O=C(O)c1ccc2c(C3CCCCC3)c3n(c2c1)CC(c1nnc(CC2CCOCC2)o1)=Cc1ccccc1-3` [Example 44, 13-cyclohexyl-6-[5-[(tetrahydro-2H-pyran-4-yl)methyl]-1,3,4-oxadiazol-2-yl]-7H-indolo[2,1-a][2]benzazepine-10-carboxylic acid], the EC50 in the assay with HCV replicon cells is > 500 nM. Besides, at HCV NS5B, the IC50 fell in the range of 1 to 500 nM.
`O=C(O)c1ccc2c(C3CCCCC3)c3n(c2c1)CC(c1ccoc1)=Cc1ccccc1-3` [Example 45, 13-Cyclohexyl-6-(furan-3-yl)-7H-indolo{2,1-a][2]benzazepine-10-carboxylic Acid]: in the assay with HCV replicon cells, the EC50 is > 500 nM. Besides, on HCV NS5B, the IC50 was 1 to 500 nM.
Taken in the same sequence, the figures for `COC(=O)CCc1cnc(C2=Cc3cc(OC)ccc3-c3c(C4CCCCC4)c4ccc(C(=O)OC)cc4n3C2)o1` [Example 46, Methyl 13-cyclohexyl-3-methoxy-6-(5-(3-methoxy-3-oxopropyl)-1,3-oxazol-2-yl)-7H-indolo[2,1-a][2]benzazepine-10-carboxylate] were > 500 nM and > 500 nM.
Taken in the same sequence, the figures for `COC(=O)c1ccc2c(C3CCCCC3)c3n(c2c1)CC(c1ncc(CCC(=O)O)o1)=Cc1cc(OC)ccc1-3` [Example 47, 3-(2-(13-Cyclohexyl-3-methoxy-10-(methoxycarbonyl)-7H-indolo[2,1-a][2]benzazepin-6-yl)-1,3-oxazol-5-yl)propanoic acid] were > 500 nM and 1 to 500 nM.
Consider `COC(=O)c1ccc2c(C3CCCCC3)c3n(c2c1)CC(c1ncc(CCC(=O)N2CCOCC2)o1)=Cc1cc(OC)ccc1-3` [Example 48, Methyl 13-cyclohexyl-3-methoxy-6-(5-(3-(4-morpholinyl)-3-oxopropyl)-1,3-oxazol-2-yl)-7H-indolo[2,1-a][2]benzazepine-10-carboxylate], for which, in the assay with HCV replicon cells, the EC50 was > 500 nM. The IC50 against HCV NS5B is > 500 nM.
As to `COc1ccc2c(c1)C=C(c1ncco1)Cn1c-2c(C2CCCCC2)c2ccc(C(=O)O)cc21` [Example 56, 13-Cyclohexyl-3-methoxy-6-(1,3-oxazol-2-yl)-7H-indolo[2,1-a][2]benzazepine-10-carboxylic acid], the EC50 with HCV replicon cells is > 500 nM. In addition, on HCV NS5B, the IC50 was in the range of 1 to 500 nM.
In the same order, the values of `COc1ccc2c(c1)C=C(c1ncco1)Cn1c-2c(C2CCCCC2)c2ccc(C(=O)NS(=O)(=O)N(C)C)cc21` [Example 57, 13-Cyclohexyl-N-((dimethylamino)sulfonyl)-3-methoxy-6-(1,3-oxazol-2-yl)-7H-indolo[2,1-a][2]benzazepine-10-carboxamide] are 1 to 500 nM and 1 to 500 nM.
Turning to `COc1ccc2c(c1)CC(c1ncco1)Cn1c-2c(C2CCCCC2)c2ccc(C(=O)NS(=O)(=O)N(C)C)cc21` (centres unmarked) [Example 58, 13-Cyclohexyl-N-((dimethylamino)sulfonyl)-3-methoxy-6-(1,3-oxazol-2-yl)-6,7-dihydro-5H-indolo[2,1-a][2]benzazepine-10-carboxamide], the concentration for a half-maximal effect (EC50) with HCV replicon cells was 1 to 500 nM. This compound returned an IC50 on HCV NS5B of 1 to 500 nM.
